These results are taken from patent US6352709B1, “Localized use of nitric oxide-adducts to prevent internal tissue damage” (NitroMed, Inc., priority 1993, dated 2002).

Assay [1] concerns platelet deposition. Conditions: systemic administration, porcine carotid model; cited from earlier work.
Assay [2] relates to platelet deposition. Put plainly: Indium-111-labeled platelet deposition on coated, dried and stored PVC tubing placed as femoral artery shunt. It is filed as in vivo, dog. Conditions: PVC tubing used three days after coating, femoral artery shunt 2 hours. The method, then:
The inventors conducted an additional experiment to investigate whether S-nitroso-BSA can be used to coat a surface such as polyvinyl chloride (PVC), and in addition, whether such surfaces can be treated at one time, and used at a later time. In this experiment, three pieces of PVC, 3 mm in internal diameter and 2 cm. in length were soaked in BSA for 4 hours, allowed to dry, and placed in a dark place. Three identical pieces of PVC tubing were soaked in an S-nitroso-BSA solution for 4 hours, dried, and also placed in the dark.
Three days after coating, a pair of PVC tubing pieces, one coated with BSA, and one coated with S-nitroso-BSA, were placed as a shunt in each of the two femoral arteries of a dog. The dog was injected with Indium^111-labeled platelets as previously described. Two hours after the PVC shunts were placed in the circulation with radioactive platelets, they were removed and placed in the Nal gamma counter.

In another assay the test system is damaged coronary artery. Put plainly: Cyclic flow reductions (CFRs) in damaged, stenosed coronary artery. It is filed as in vivo, dogs. Conditions: approximately 0.5 mM NO, given selectively into circumflex coronary artery.
For assay [3], the system named is balloon-injured rabbit femoral artery. Put plainly: Neointimal proliferation after balloon injury of femoral artery (morphometry). It is filed as in vivo. Conditions: 14 days after balloon injury, local delivery 15 minutes. The method, then: Femoral arteries were isolated and balloon injured as described below. pS-BSA or pS-NO-BSA were applied in a paired fashion directly into the arterial lumen for 15 minutes and then blood flow was re-established. […] Neointimal proliferation is reported as the absolute neointimal area in FIG. 5A and as a ratio of neointima/media in FIG. 5B in 4-6 segments from each artery. Data are expressed as mean +/− SEM and are derived from 15 vessels in the BSA and S-NO-BSA groups, 11 vessels in the PS-BSA group, 7 vessels in the PS-NO-BSA and SHAM groups, and 5 in the SNP group. *P<0.05, pS-NO-BSA vs. PS-BSA. +/+P<0.05 Sodium nitroprusside vs. pS-BSA for both FIGS. 5A and 5B.
Animal Preparation: All animal preparations were performed within the institutional guidelines of the Brockton/West Roxbury Department of Veteran Affairs Medical Center and Boston University Medical Center, and in accordance with the guiding principles of the American Physiological Society. New Zealand white rabbits (3.5-4.2 kg) of either sex were premedicated with 5 mg/kg intramuscular (IM) xylazine hydrochlolide (Miles Pharmaceuticals, Shawnee Mission, Kans.), and 0.1 mg/kg subcutaneous (SC) atropine sulfate (Lyphomed, Deerfield, Ill.) fifteen minutes prior to the induction of anesthesia. Anesthesia was induced with 40 mg/kg IM ketamine hydrochloride (Fort Dodge Laboratories, Fort Dodge, Ind.) and 5 mg/kg IM acepromazine maleate (Aveco Company, Inc., Fort Dodge, Ind.). Additional doses of ketamine hydrochloride were administered as necessary to maintain anesthesia. For survival studies, 100,000 U penicillin G (Apothecon of Bristol-Myers Squibb, Princeton, N.J.), was administered IM perioperatively. The skin over the femoral arteries was next infiltrated with 1% lidocaine (Astra Pharmaceuticals, Inc., Westborough, Mass.) and the common femoral arteries were exposed from the inguinal ligament to the superficial femoral artery. Arteries were cleared of connective tissue, side branches were ligated, and the superficial femoral artery was suspended with silk ties. A 1.5-to-2.0 cm length of femoral artery was isolated from the circulation proximally and distally with neurosurgical microaneurysm clips. The superficial femoral-artery was cannulated with a 2F Fogarty balloon catheter (American Edwards Laboratories, Santa Ana, Calif.) that was passed into the isolated segment of femoral artery. The balloon was inflated with sufficient air to generate slight resistance and withdrawn three times. A 20 g angiocath was then inserted in the arteriotomy and 1 ml of 25.8 mg/ml PS-NO-BSA or 49.2 mg/ml S-NO-BSA was administered over 15 minutes. The contralateral femoral artery was prepared identically and an appropriate control (25.8 mglml pS-BSA, 49.2 mg/ml BSA or 0.66 mg/ml sodium nitroprusside) was administered. For binding studies, 0.5 ml of [^125I]-labeled nitrosylated albumin or control was administered. Following administration of the agent, the superficial femoral artery was ligated and flow reestablished. Sham-operated animals underwent surgical exposure and sidebranch ligation, but no balloon injury was performed or local delivery administered. The area of balloon injury was marked by surgical staples in the adjacent muscle fascia. For chronic studies, the incision was closed with subcuticular absorbable suture and the animals allowed to recover. For acute studies, blood was allowed to circulate through the treated areas for 15 minutes prior to vessel harvest. In some experiments, a distant control vessel, the right carotid artery, was isolated and harvested without any other manipulation.
A 7F plastic cannula was inserted into the abdominal aorta and the vessels perfused clear with saline followed by fixation at 100 mm Hg pressure with 10% buffered formalin. The vessels were stored in 10% buffered formalin and the samples paraffin-embedded and microtome-sectioned. […]

In assay [4] the test system is platelet deposition. Put plainly: Indium-111-labeled platelet deposition on coated 5 FR USC1 catheters in femoral arteries. It is filed as in vivo, dogs. Conditions: 5 FR catheters in dog femoral arteries 2 hours, counted four minutes, average of three. The text has this:
In addition, three pairs of 5 FR USC1 catheters were studied. One catheter was soaked in 5% BSA, while the other catheter was soaked in a mixture of S-nitroso BSA for one hour. The catheters were rinsed with saline and one each was inserted into the right or left femoral arteries of the dogs described above, and left for two hours. Each catheter was flushed with normal saline every one-half hour, but no heparin was given. The catheters were then removed and rinsed with saline. Equal lengths of the catheters were cut from the distal ends and each one was placed in a Nal gamma counter and the radioactivity was counted for four minutes.

The test system of assay [5] is platelet deposition. Put plainly: Indium-111-labeled platelet deposition and thrombus on coated dacron grafts in transected carotid arteries. It is filed as in vivo, dogs. Conditions: for average percent increase in graft weight due to thrombus formation on the luminal surface: dacron grafts, dog carotid artery, 2 hours, three grafts. The text has this:
This method requires the removal of platelets from an animal or human subject. The platelets are labeled with a radioactive material such as Indium^111, which emits gamma rays, detectable by a gamma counter placed 3 to 6 inches away from the source of radioactive platelets. The labeled platelets are either reinjected into the animal or human […], or contacted with the artificial surface […]. Platelets will adhere to artificial surfaces or acutely damaged arterial surfaces. Thus, the number of normal platelets and radioactive platelets which stick to the surface is an indication of the thrombogenicity of the surface.
First, the inventors coated dacron grafts and cardiac catheters with S-nitroso-bovine serum albumin (BSA). In three separate experiments, an identical pair of 6 mm. (internal diameter) knitted dacron grafts, 5 cm. in length, were prepared for surgical placement in the transected carotid arteries of three anesthetized dogs. No heparin was given. One graft was soaked in 5% BSA and the other graft was soaked in 5% BSA combined with 0.5 mM nitric oxide (producing S-nitroso-BSA) for one hour prior to insertion, and then rinsed in saline. The grafts were sutured in place with a continuous 6-0 proline suture.
Indium^111-labeled platelets are very useful in detecting platelet accumulation on vascular grafts. Therefore, Indium^111-labeled platelets were prepared according to standard methods described in Heyns “Method for Labeling Platelets with In^111-oxine”. In: Platelet Kinetics and Imaging Vol. II, Editors Heyns et al., CRC Press, 1985; and Sheffel et al., J. Nucl. Med., 20: 524-531, 1979, and injected prior to insertion of the grafts. […] The grafts were then placed in a Nal gamma well counter and counted for four minutes.

Assay [6] deals with clotting on the catheter wall. Put plainly: Clotting on coated 3 FR USC1 catheters implanted in carotid artery. It is filed as in vivo, dogs. Conditions: catheters soaked 12 hours, in dog carotid artery 6-8 hours, no heparin. The protocol:
In five anesthetized dogs, both carotid arteries were exposed. Two 3 FR USC1 catheters were prepared for arterial implantation. One catheter was soaked in a 5% BSA solution for 12 hours, while the other was soaked in a 5% BSA solution which also contained 1 mg/ml of sodium nitroprusside. One each of the two coated catheters was placed randomly in the right or left carotid artery of the dog through a small incision sealed with a 6-0 proline suture. The catheters were advanced for 5 cm into the arterial lumen. The dogs were not given any heparin. The catheters were removed 6-8 hours later and examined for clotting on the catheter wall and at the site where the catheter entered the carotid wall.

With `[NH-]c1c[n+](N2CCOCC2)no1` [SIN-1], the “reduction in platelet deposition” value in the assay with platelet deposition [1] is 2.3 fold.

For “S-nitroso-bovine serum albumin [S-nitroso-BSA]”, the “Indium^111-labeled platelet counts on PVC shunt” value with platelet deposition [2] is 97,510 counts/4 minutes. Moreover, in the assay with damaged coronary artery, the “passivation of damaged arterial wall compared with sodium nitroprusside” value was “better passivation and the effect lasts longer”. In assay [3], the neointima/media ratio was 0.72+/−0.084 and the neointimal area is reported as 1.83+/−0.18 ×10^5 μm^2. Moreover, in the assay on platelet deposition [4], the “Indium^111-labeled platelet counts on catheter” value was 2,850±800 counts. Further, in the assay with platelet deposition [5], the “average percent increase in graft weight due to thrombus formation on the luminal surface” value stood at 196% +/−71%.

“bovine serum albumin [BSA, reference compound]”: in assay [6], the “clotting on the catheter wall and entry site” value is reported as “considerably more clotting”. Moreover, the “Indium^111-labeled platelet counts on PVC shunt” value with platelet deposition [2] is 200,870 counts/4 minutes. Further, in assay [3], the neointima/media ratio is 1.07+/−0.167 and the neointimal area was 2.54+/−0.33 ×10^5 μm^2. In the assay on platelet deposition [4], the “Indium^111-labeled platelet counts on catheter” value is 9,000±1,100 counts. In addition, the “Indium^111-labeled platelet counts on graft” value with platelet deposition [5] (dacron grafts soaked 1 h, in dog carotid artery 2 hours, average of three grafts) was 654,000 +/−89,000 counts/4 minutes. Also, in the assay with platelet deposition [5], the “average percent increase in graft weight due to thrombus formation on the luminal surface” value is 410% +/−97%.
